Source: ChEMBL document CHEMBL1144487 (Bioorg Med Chem, 2007)

Experiments:
[1] = Differential index, LC50 for rat NRK 52E cells to LC50 for rat K-ras transformed NRK K/1 cells; type: ADME, cell-based; conditions: NRK 52E cells versus K-ras transformed NRK K/1 cells
[2] = Cytotoxicity against rat H-ras transformed NRK H/1.2 cells after 5 days; type: cell-based; conditions: NRK H/1.2, 120 h, read-out: LC50 (the source's name)
[3] = Cytotoxicity against rat N-ras transformed NRK N/4.2 cells after 5 days; type: cell-based; conditions: NRK N/4.2, 120 h, read-out: LC50 (the source's name)
[4] = Differential index, LC50 for rat NRK 52E cells to LC50 for rat N-ras transformed NRK N/4.2 cells; type: ADME, cell-based; conditions: NRK 52E cells versus N-ras transformed NRK N/4.2 cells
[5] = Cytotoxicity against mouse 3LL cells after 5 days; type: cell-based; conditions: 120 h, read-out: LC50 (the source's name)
[6] = Cytotoxicity against rat NRK 52E cells after 5 days; type: cell-based; conditions: read-out: LC50
[7] = Differential index, LC50 for rat NRK 52E cells to LC50 for mouse 3LL cells; type: ADME, cell-based; conditions: NRK 52E cells versus 3LL cells
[8] = Differential index, LC50 for rat NRK 52E cells to LC50 for rat H-ras transformed NRK H/1.2 cells; type: ADME, cell-based; conditions: NRK 52E cells versus H-ras transformed NRK H/1.2 cells
[9] = Cytotoxicity against rat K-ras transformed NRK K/1 cells after 5 days; type: cell-based; conditions: NRK K/1, 120 h, read-out: LC50 (the source's name)

SMILES | selectivity ratio [1] | CC50 [2] [µM] | CC50 [3] [µM] | selectivity ratio [4] | CC50 [5] [µM] | CC50 at 120 h [6] [µM] | selectivity ratio [7] | selectivity ratio [8] | CC50 [9] [µM]
CC(=O)NC1=CC(=O)c2ccc(-c3[nH]c(CO)cc4c5ccccc5nc3-4)nc2C1=O | 1.2 | 0.2 | 0.22 | 1.1 | 0.44 | 0.25 | 0.6 | 1.2 | 0.2
CC(=O)NC1=CC(=O)c2ccc(-c3[nH]ccc4c5ccccc5nc3-4)nc2C1=O | 0.9 | 0.4 | 0.49 | 0.8 | 3 | 0.4 | 0.1 | 1 | 0.44
CC(C)CCOC(=O)c1cc2c([nH]c3ccccc32)c(-c2ccc3c(n2)C(=O)C(NC(=O)CCl)=CC3=O)n1 | 2.4 | 1.32 | 1.2 | 1.1 | 3.2 | 1.35 | 0.4 | 1 | 0.56
CC(=O)NC1=CC(=O)c2ccc(-c3nc(C(=O)OCCN(C)C)cc4c3[nH]c3ccccc34)nc2C1=O | 2.6 | 0.24 | 0.29 | 1.3 | 0.5 | 0.37 | 0.7 | 1.5 | 0.14
Cc1ccc2c(n1)C(=O)C(NC(=O)CCl)=CC2=O |  | 2.8 | 3.4 |  | 2.3 | 3.2 |  |  | 6.6
CC(=O)NC1=CC(=O)c2ccc(-c3nc(C(=O)OCCC(C)C)c(C)c4c3[nH]c3ccccc34)nc2C1=O | 0.9 | 4.3 | 3.89 | 1.2 | 7.4 | 4.16 | 0.6 | 1.1 | 5
CCCCOC(=O)c1cc2c([nH]c3ccccc32)c(-c2ccc3c(n2)C(=O)C(NC(=O)CCl)=CC3=O)n1 | 1.8 | 0.74 | 1.05 | 0.9 | 2.3 | 0.96 | 0.4 | 1.3 | 0.52
CCCCCCCCOC(=O)c1cc2c([nH]c3ccccc32)c(-c2ccc3c(n2)C(=O)C(NC(=O)CCl)=CC3=O)n1 | > 2.2 | > 33 | > 33 | 1 | > 33 | > 33 |  |  | 15
CCCCOC(=O)c1cc2c([nH]c3ccc(F)cc32)c(-c2ccc3c(n2)C(=O)C(NC(C)=O)=CC3=O)n1 | 1.9 | 0.7 | 0.84 | 0.8 | 2.1 | 0.62 | 0.3 | 0.9 | 0.33
COC(=O)c1nc(-c2ccc3c(n2)C(=O)C(NC(=O)CCl)=CC3=O)c2[nH]c3ccccc3c2c1C | 0.7 | 0.58 | 0.7 | 0.8 | 2 | 0.58 | 0.3 | 1 | 0.79
CC(=O)NC1=CC(=O)c2cc(C)cnc2C1=O |  | 1.1 |  |  | 1 | 1.3 |  |  | 1.8
CCOC(=O)c1cc2c([nH]c3ccccc32)c(-c2ccc3c(n2)C(=O)C(NC(C)=O)=CC3=O)n1 | 7.5 | 0.36 | 0.2 | 0.7 | 3.2 | 0.3 | 0.1 | 0.8 | 0.04
CC(=O)NC1=CC(=O)c2ccc(-c3nc(C(=O)OCCN(C)C)c(C)c4c3[nH]c3ccccc34)nc2C1=O | 1.5 | 0.09 | 0.09 | 1 | 0.48 | 0.09 | 0.2 | 1 | 0.06
CC(=O)NC1=CC(=O)c2nc(C)ccc2C1=O |  | 20 |  |  | > 33 | 21.5 |  |  | > 33
CC(C)C(=O)NC1=CC(=O)c2ccc(C=O)nc2C1=O |  | > 3.3 | > 3.3 |  | 1 | > 3.3 |  |  | 2.15
COC(=O)c1cc2c([nH]c3ccccc32)c(-c2ccc3c(n2)C(=O)C(NC(=O)C(C)C)=CC3=O)n1 | 1.4 | 0.66 | 0.64 | 1.1 | 1.3 | 0.7 | 0.5 | 1.1 | 0.5
NC1=CC(=O)c2ccc(C=O)nc2C1=O |  | 2.2 |  |  | 2.3 | 2.4 |  |  | 4.3

SMILES | selectivity ratio [1] | CC50 [2] [µM] | CC50 [3] [µM] | selectivity ratio [4] | CC50 [5] [µM] | CC50 at 120 h [6] [µM] | selectivity ratio [7] | selectivity ratio [8] | CC50 [9] [µM]
CC(=O)NC1=CC(=O)c2ccc(C(=O)O)nc2C1=O |  | > 31 |  |  | 26 | > 33 |  |  | > 33
CCCC(=O)NC1=CC(=O)c2ccc(-c3nc(C(=O)OC)cc4c3[nH]c3ccccc34)nc2C1=O | 1.4 | 0.66 | 0.64 | 1.1 | 1.3 | 0.7 | 0.5 | 1.1 | 0.5
CCCC(=O)NC1=CC(=O)c2ccc(-c3nc(C(=O)OC)c(C)c4c3[nH]c3ccccc34)nc2C1=O | 1 | 0.4 | 0.42 | 0.8 | 0.82 | 0.32 | 0.4 | 0.8 | 0.33
CCCCOC(=O)c1cc2c([nH]c3ccccc32)c(-c2ccc3c(n2)C(=O)C(NC(=O)C(C)C)=CC3=O)n1 | 2.3 | 0.61 | 0.5 | 1.8 | 0.9 | 0.9 | 1 | 1.5 | 0.4
CC(=O)NC1=CC(=O)c2ccc(C=O)nc2C1=O |  | 2.5 |  |  | 1.2 | 1.3 |  |  | 2.6
Cc1ccc2c(n1)C(=O)C(N)=CC2=O |  | 0.6 |  |  | 0.8 | 0.8 |  |  | 1.3
CC(=O)NC1=CC(=O)c2ccc(-c3[nH]c(C(=O)O)cc4c5ccccc5nc3-4)nc2C1=O | 2.1 | 0.11 | 0.1 | 1.5 | 0.4 | 0.15 | 0.4 | 1.4 | 0.07
CCCC(=O)NC1=CC(=O)c2ccc(-c3nc(C(=O)OCCC(C)C)cc4c3[nH]c3ccccc34)nc2C1=O | 1.6 | 0.37 | 0.65 | 1.5 | 2.4 | 1 | 0.4 | 2.7 | 0.6
COC(=O)c1cc2c([nH]c3ccccc32)c(-c2ccc3c(n2)C(=O)C(NC(C)=O)=CC3=O)n1 | 4.5 | 0.51 | 0.52 | 1 | 0.84 | 0.5 | 0.6 | 1 | 0.11
CC(=O)NC1=CC(=O)c2ccc(-c3nc(C(=O)OC4CCCCC4)cc4c3[nH]c3ccccc34)nc2C1=O | 1.7 | 0.69 | 0.7 | 1 | 1 | 0.7 | 0.7 | 1 | 0.4
COC1=CC(=O)c2ccc(C)nc2C1=O |  | 4.2 |  |  | 7.4 | 6.9 |  |  | 11.8
O=Cc1ccc2c(n1)C(=O)C(NC(=O)CCl)=CC2=O |  | 3.4 | 3.2 |  | 2.1 | 3.6 |  |  | 5.8
Cc1ccc2c(n1)C(=O)C(NC(=O)C(C)C)=CC2=O |  | 1.45 | 1.15 |  | 0.71 | 1.5 |  |  | 7.5
Cc1ccc2c(n1)C(=O)C(NCCCCO)=CC2=O |  | 10.5 |  |  | 3.8 | 10.5 |  |  | 13.5
CC(=O)NC1=CC(=O)c2ccc(-c3nc(C(=O)OCc4ccccc4)cc4c3[nH]c3ccccc34)nc2C1=O | 1 | > 10 | > 33 | < 0.3 | > 33 | 9.5 | < 0.3 | < 0.9 | 9.5
CCCCOC(=O)c1cc2c([nH]c3ccc(OC)cc32)c(-c2ccc3c(n2)C(=O)C(NC(C)=O)=CC3=O)n1 | 1.1 | 2.1 | 2.2 | 1.1 | > 3.3 | 2.5 | < 0.7 | 1.2 | 2.2
